{
  "source": "patent US11896561B2",
  "about": "“Compositions including a cannabinoid and protocatechuic acid” (priority 2021, dated 2024)",
  "key": {"[1]": {"settings": "humans; cited from earlier work"}, "[2]": {"test": "CBD solubility testing in liquid vehicles", "format": "physicochemical", "from_the_text": "The liquid vehicles used are considered G.R.A.S. by FDA; distilled water, deionized water, propylene glycol and 70% isopropyl alcohol. The test containers were 125-milliliter graduated and measured sterile plastic from Wheaton company. A thermometer probe was used to assess the temperatures.\nTesting was done to determine the independent solubility of each reagent in the various vehicles. This was followed by testing the potential concentrations of each when combined. The testing started with an arbitrary solution concentration, one that could be altered for percentage of solubility."}, "[3]": {"settings": "cited from earlier work"}, "[4]": {"test": "Testing of smear on glass slide (crystals deployed)", "format": "physicochemical", "from_the_text": "An additional method was employed to replicate the clinical topical application. A smear of the various concentrations was made on the glass histology blank slide to show the amount of crystals deployed for the various concentrations."}, "[5]": {"settings": "cited from earlier work", "remark": "listed apart in the source"}, "MRSA and Pseudomonas": {"test_system": "MRSA and Pseudomonas", "settings": "cited from earlier work"}, "[6]": {"settings": "compared with vitamin E; cited from earlier work"}},
  "note": "“Also recorded” adds a separate entry of the source.",
  "data": [
    {"smiles": "C=C(C)[C@@H]1CCC(C)=C[C@H]1c1c(O)cc(CCCCC)cc1O", "note": "[CBD, Cannabidiol]", "values": [
      {"measurement": "oral bioavailability", "setting": "[1]", "result": "approximately 6%"},
      {"measurement": "heating necessary for dissolving", "setting": "[2]; 0.247 (0.247%) in 100 ml distilled water", "result": 120, "unit": "degrees Fahrenheit"},
      {"measurement": "solution outcome upon cooling", "setting": "[2]; 0.247 (0.247%) in 100 ml distilled water, heated to 120 degrees Fahrenheit then cooled", "result": "went out of solution"},
      {"measurement": "time remained in solution", "setting": "[2]; 0.517 (0.5 grams) in 50 ml deionized water, preheated", "result": "at least 48 hours"},
      {"measurement": "heating necessary for dissolving", "setting": "[2]; 1.0 gram (1%) in 100 ml distilled water", "result": 120, "unit": "degrees Fahrenheit"},
      {"measurement": "solution outcome upon cooling", "setting": "[2]; 1.0 gram (1%) in 100 ml distilled water, heated to 120 degrees Fahrenheit then cooled", "result": "went out of solution"},
      {"measurement": "time remained in solution", "setting": "[2]; 1 gram (1%) in 100 ml propylene glycol, preliminary heating to 120 Fahrenheit, after cooling", "result": "> 48", "unit": "h"},
      {"measurement": "time soluble", "setting": "[2]; 1.02 gram in 100 ml isopropyl alcohol", "result": "more than 48 hours"},
      {"measurement": "temperature at which it went into solution", "setting": "[2]; 1.025 grams in 50 ml deionized water", "result": 120, "unit": "Fahrenheit"},
      {"measurement": "solution outcome", "setting": "[2]; 1.025 grams in 50 ml deionized water (2.05%), after cooling", "result": "came out of solution"},
      {"measurement": "solution outcome upon cooling", "setting": "[2]; 2% in 100 ml propylene glycol, heated then cooled", "result": "came out of solution"},
      {"measurement": "solution outcome", "setting": "[2]; 2 grams (4%) in 50 ml propylene glycol, with heating", "result": "did not go into solution even with heating; also recorded: not dissolved even on heating"},
      {"measurement": "time remained soluble", "setting": "[2]; 3 grams in 100 ml 70% isopropyl alcohol", "result": "more than 48 hours"},
      {"measurement": "temperature required to dissolve", "setting": "[2]; 40 milligrams of CBD in distilled water", "result": 140, "unit": "degrees Fahrenheit"},
      {"measurement": "effect of heating in solution", "setting": "[2]; heated past 100 Fahrenheit", "result": "forms a tan “glue” like material"},
      {"measurement": "effect of heating alone and/or in combination", "setting": "[2]; heating above 90 Fahrenheit", "result": "tan ‘glue’ or sticky material"},
      {"measurement": "elimination half-life", "setting": "[3]; in vivo", "result": "18 to 32", "unit": "h"},
      {"measurement": "crystals on glass slide smear", "setting": "[4]; 1% concentrations", "result": "very sparse crystals"},
      {"measurement": "crystals on glass slide smear", "setting": "[4]; concentrations of 2 and 3%", "result": "abundant crystals"},
      {"measurement": "solubility in DMSO", "setting": "[5]; DMSO purged with an inert gas", "result": "~60", "unit": "mg/mL"},
      {"measurement": "solubility in alcohol / isopropyl alcohol", "setting": "[5]; alcohol, at the original time of extraction, by the literature", "result": "up to 90%"},
      {"measurement": "solubility in dimethyl formamide", "setting": "[5]; dimethyl formamide purged with an inert gas", "result": "~50", "unit": "mg/mL"},
      {"measurement": "solubility in ethanol", "setting": "[5]; ethanol purged with an inert gas", "result": "approximately 35 mg/ml"},
      {"measurement": "solubility in methanol", "setting": "[5]; methanol purged with an inert gas", "result": "~30", "unit": "mg/mL"}
    ]},
    {"smiles": "O=C(O)c1ccc(O)c(O)c1", "note": "[PCA, Protocatechuic acid]", "values": [
      {"measurement": "time to heal the wound", "setting": "MRSA and Pseudomonas; topical 25 uM PCA, mammalian skin wound", "result": 2, "unit": "days"},
      {"measurement": "topical dose sufficient for controlling skin wound infection", "setting": "MRSA and Pseudomonas; topical, mammalian skin wound of MRSA and Pseudomonas", "result": 25, "unit": "µM"},
      {"measurement": "life (duration in the body)", "setting": "[3]; in vivo", "result": 8, "unit": "h"},
      {"measurement": "oral availability", "setting": "[3]; oral, in 30 minutes", "result": 100, "unit": "%"},
      {"measurement": "peak", "setting": "[3]; time of peak in the body", "result": 2, "unit": "min"},
      {"measurement": "crystals on glass slide smear", "setting": "[4]; concentrations of 2 and 3%", "result": "abundant crystals"},
      {"measurement": "antioxidant power relative to vitamin E", "setting": "[6]", "result": 10, "unit": "times"}
    ]}
  ]
}
